Measured values published in ChEMBL document CHEMBL1268993, “Tri- and tetrasubstituted imidazoles as p38α mitogen-activated protein kinase inhibitors” (Bioorg Med Chem Lett, 2010).

Molecular target: Mitogen-activated protein kinase 14 (Homo sapiens, UniProt Q16539)
Experiment: Inhibition of p38alpha by immunosorbent based assay

Sequence of Mitogen-activated protein kinase 14 (Q16539 whole entry): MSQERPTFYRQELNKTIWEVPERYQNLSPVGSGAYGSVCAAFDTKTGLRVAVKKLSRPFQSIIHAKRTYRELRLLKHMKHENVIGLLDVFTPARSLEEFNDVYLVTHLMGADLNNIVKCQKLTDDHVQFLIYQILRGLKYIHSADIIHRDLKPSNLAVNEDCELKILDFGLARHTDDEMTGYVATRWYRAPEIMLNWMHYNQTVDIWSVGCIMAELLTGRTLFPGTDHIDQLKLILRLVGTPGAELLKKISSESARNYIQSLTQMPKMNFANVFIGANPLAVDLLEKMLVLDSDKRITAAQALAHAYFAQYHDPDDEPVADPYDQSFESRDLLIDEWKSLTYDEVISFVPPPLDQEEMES

| Compound | IC50 [nM] |
| --- | --- |
| COc1ccc(/C=C/C(=O)Nc2cc(-c3c(-c4ccc(F)cc4)nc(SC)n3C)ccn2)c(OC)c1 | 280 |
| CSc1nc(-c2ccc(F)cc2)c(-c2ccnc(NC(C)=O)c2)n1[C@H]1CC[C@H](O)CC1 | 320 |
| COCCn1c(SC)nc(-c2ccc(F)cc2)c1-c1ccnc(NC(C)=O)c1 | 110 |
| CSc1nc(-c2ccc(F)cc2)c(-c2ccnc(NC(C)=O)c2)n1CCCI | 19 |
| CSc1nc(-c2ccc(F)cc2)c(-c2ccnc(NC(C)=O)c2)n1CC(=O)N1CCOCC1 | 280 |
| CCC(=O)Nc1cc(-c2c(-c3ccc(F)cc3)nc(SC)n2CCOC)ccn1 | 180 |
| COC(=O)CCn1c(SC)nc(-c2ccc(F)cc2)c1-c1ccnc(NC(C)=O)c1 | 330 |
| CSc1nc(-c2ccc(F)cc2)c(-c2ccnc(NC(C)=O)c2)n1C1CCOCC1 | 780 |
| CSc1nc(-c2ccc(F)cc2)c(-c2ccnc(NC(C)=O)c2)n1CCCCCl | 180 |
| CSc1nc(-c2ccc(F)cc2)c(-c2ccnc(NC(C)=O)c2)n1CCCO | 150 |
| CCC(CC)n1c(SC)nc(-c2ccc(F)cc2)c1-c1ccnc(NC(C)=O)c1 | 570 |
| CCOC(=O)CCn1c(SC)nc(-c2ccc(F)cc2)c1-c1ccnc(NC(C)=O)c1 | 440 |
| CSc1nc(-c2ccc(F)cc2)c(-c2ccnc(NC(C)=O)c2)n1CCO | 110 |
| CSc1nc(-c2ccc(F)cc2)c(-c2ccnc(NC(C)=O)c2)n1CCCl | 150 |
| CSc1nc(-c2ccc(F)cc2)c(-c2ccnc(NC(C)=O)c2)n1CCC(=O)O | 2260 |
| CSc1nc(-c2ccc(F)cc2)c(-c2ccnc(NC(C)=O)c2)n1CCCCC(=O)O | 770 |
| COCCn1c(SC)nc(-c2ccc(F)cc2)c1-c1ccnc(NC(=O)CC(F)(F)F)c1 | 490 |
| C=CC(=O)Nc1cc(-c2c(-c3ccc(F)cc3)nc(SC)n2CCOC)ccn1 | 170 |
| CCn1c(SC)nc(-c2ccc(F)cc2)c1-c1ccnc(NC(=O)/C=C/c2ccc(OC)cc2)c1 | 75 |
| CCN(CC)C(=O)CCn1c(SC)nc(-c2ccc(F)cc2)c1-c1ccnc(NC(C)=O)c1 | 1200 |

| Compound | IC50 [nM] |
| --- | --- |
| CSc1nc(-c2ccc(F)cc2)c(-c2ccnc(NC(C)=O)c2)n1CCCCO | 140 |
| CSc1nc(-c2ccc(F)cc2)c(-c2ccnc(NC(=O)C3CC3)c2)n1C | 170 |
| CSc1nc(-c2ccc(F)cc2)c(-c2ccnc(NC(C)=O)c2)n1CC(O)CO (centres undefined) | 1490 |
| CSc1nc(-c2ccc(F)cc2)c(-c2ccnc(NC(C)=O)c2)n1C(CCO)CCO | 6140 |
| CSc1nc(-c2ccc(F)cc2)c(-c2ccnc(NC(=O)C3CCCC3)c2)n1C | 150 |
| CSc1nc(-c2ccc(F)cc2)c(-c2ccnc(NC(C)=O)c2)n1CCC(=O)N1CCCC1 | 1140 |
| COCCn1c(SC)nc(-c2ccc(F)cc2)c1-c1ccnc(NC(=O)c2cccs2)c1 | 240 |
| CSc1nc(-c2ccc(F)cc2)c(-c2ccnc(NC(C)=O)c2)n1C1CCCCC1 | 790 |
| CSc1nc(-c2ccc(F)cc2)c(-c2ccnc(NC(C)=O)c2)n1C1CC1 | 400 |
| CSc1nc(-c2ccc(F)cc2)c(-c2ccnc(NC(C)=O)c2)n1CCC(=O)N1CCOCC1 | 1570 |
| COc1ccc(/C=C/C(=O)Nc2cc(-c3c(-c4ccc(F)cc4)nc(SC)n3C)ccn2)cc1 | 18 |
| CSc1nc(-c2ccc(F)cc2)c(-c2ccnc(NC(C)=O)c2)n1CCC(=O)N1CCCCC1 | 2240 |
| CSc1nc(-c2ccc(F)cc2)c(-c2ccnc(NC(C)=O)c2)n1CCCC(=O)O | 1620 |
| CCN(CC)C(=O)Cn1c(SC)nc(-c2ccc(F)cc2)c1-c1ccnc(NC(C)=O)c1 | 60 |
| CSc1nc(-c2ccc(F)cc2)c(-c2ccnc(NC(C)=O)c2)n1CCCBr | 27 |
| CCn1c(SC)nc(-c2ccc(F)cc2)c1-c1ccnc(NC(=O)/C=C/c2ccc(OC)cc2OC)c1 | 38 |
| CSc1nc(-c2ccc(F)cc2)c(-c2ccnc(NC(C)=O)c2)n1CCCCl | 17 |
| CSc1nc(-c2ccc(F)cc2)c(-c2ccnc(NC(C)=O)c2)n1C(CO)CO | 6280 |
| CSc1nc(-c2ccc(F)cc2)c(-c2ccnc(NC(C)=O)c2)n1CCCF | 180 |

The remaining lines, values ahead:

| IC50 [nM] | Compound |
| --- | --- |
| 53 | CSc1nc(-c2ccc(F)cc2)c(-c2ccnc(NC(=O)c3cc4ccccc4o3)c2)[nH]1 |
| 10 | COc1ccc(/C=C/C(=O)Nc2cc(-c3[nH]c(SC)nc3-c3ccc(F)cc3)ccn2)cc1 |
| 14 | CSc1nc(-c2ccc(F)cc2)c(-c2ccnc(NC(=O)c3ccc(C)c(F)c3)c2)[nH]1 |
| 160 | CSc1nc(-c2ccc(F)cc2)c(-c2ccnc(NC(=O)COc3cccc(Cl)c3Cl)c2)[nH]1 |
| 170 | CSc1nc(-c2ccc(F)cc2)c(-c2ccnc(NC(=O)/C=C/c3c(Cl)cccc3Cl)c2)n1C |
| 27 | CSc1nc(-c2ccc(F)cc2)c(-c2ccnc(NC(=O)C3=Cc4ccccc4OC3)c2)[nH]1 |
| 100 | CSc1nc(-c2ccc(F)cc2)c(-c2ccnc(NC(=O)c3ccc(-c4ccccc4)cc3)c2)[nH]1 |
| 100 | CSc1nc(-c2ccc(F)cc2)c(-c2ccnc(NC(=O)COc3ccc(Cl)cc3)c2)[nH]1 |
| 93 | CCn1c(SC)nc(-c2ccc(F)cc2)c1-c1ccnc(NC(=O)Cc2ccc(F)cc2)c1 |
| 13 | CSc1nc(-c2ccc(F)cc2)c(-c2ccnc(NC(=O)c3ccco3)c2)[nH]1 |
| 130 | CSc1nc(-c2ccc(F)cc2)c(-c2ccnc(NC(=O)CCc3ccc(C(C)(C)C)cc3)c2)[nH]1 |
| 3 | CSc1nc(-c2ccc(F)cc2)c(-c2ccnc(NC(=O)/C=C/c3c(Cl)cccc3Cl)c2)[nH]1 |
| 100 | CCn1c(SC)nc(-c2ccc(F)cc2)c1-c1ccnc(NC(=O)/C=C/c2c(Cl)cccc2Cl)c1 |
| 27 | CSc1nc(-c2ccc(F)cc2)c(-c2ccnc(NC(=O)/C(F)=C/c3ccccc3)c2)[nH]1 |
| 32 | CSc1nc(-c2ccc(F)cc2)c(-c2ccnc(NC(=O)/C=C/c3ccc(C)cc3)c2)[nH]1 |
| 90 | CSc1nc(-c2ccc(F)cc2)c(-c2ccnc(NC(=O)C(C)c3ccc(CC(C)C)cc3)c2)[nH]1 (centres undefined) |
| 9 | CSc1nc(-c2ccnc(NC(=O)Cc3ccc(F)cc3)c2)c(-c2ccc(F)cc2)[nH]1 |
| 130 | CSc1nc(-c2ccc(F)cc2)c(-c2ccnc(NC(=O)Cc3ccc(F)cc3)c2)n1C |
| 160 | CSc1nc(-c2ccc(F)cc2)c(-c2ccnc(NC(=O)COc3ccc(Cl)cc3Cl)c2)[nH]1 |
| 22 | CSc1nc(-c2ccc(F)cc2)c(-c2ccnc(NC(=O)Cc3ccc(Cl)cc3)c2)n1C |
